Measured values as given in US8513417B2, “Method for synthesis of nitroxyl radical” (Kyushu University, National University Corporation, priority 2008, dated 2013).

Columns and labels:
[1] = Reactivity of nitroxyl radical to hydroxyl radical (UV/H2O2, X-band ESR); format: physicochemical; details: nitroxyl radical 25 μM, H2O2 10 mM, UV 100 to 120 mW/cm^2, X-band ESR
Description: In order to examine reactivities of the following 3 types of TEMPO-based nitroxyl radical derivatives, in which substituents at position-2 and position-6 in one derivative are different from those in another derivative, to free radical:
[drawing 49] according to the method of Takeshita et al. (Biochimica et Biophysica Acta, 1573, 156-164 (2002)), the following procedure was carried out. Nitroxyl radical (25 μM) was mixed with H2O2 (10 mM), and thereafter a specific amount of the mixture was collected in a capillary and irradiated with UV (100 to 120 mW/cm^2) to generate OH radical. The reactivities thereof to the nitroxyl radical were examined using X-band ESR.

[2] = Reactivity of nitroxyl radical to ascorbic acid (decrease in ESR signal intensity over time); format: physicochemical; details: nitroxyl radical 10 to 50 μM, ascorbic acid 100 μM to 2 mM, X-band ESR
Description: It has been reported that nitroxyl radical also reacts with a reduction substance (Couet, W. R., Tetrahedron, 41(7), 1165-1172 (1985); Finkelstein, E., Biochimica et Biophysica Acta, 802, 90-98 (1984)). Therefore, the following procedure was carried out. After nitroxyl radical (10 to 50 μM) was mixed with ascorbic acid (100 μM to 2 mM), a specific amount of the mixture was collected in a capillary, and thereafter the measurement was started. Using X-band ESR, decrease in ESR signal intensity was observed over time, thereby examining the reactivity to ascorbic acid, which is a typical reduction substance in the living body.

| melting point | SMILES | reactivities to hydroxyl radical, rank order [1] | reactivities to ascorbic acid, rank order [2] | reactivity to ascorbic acid ([2]; FIG. 2) |
| --- | --- | --- | --- | --- |
| 55.4 °C | CC(C)(C)C1CC(=O)CC(C(C)(C)C)N1 (stereo not shown) | – | – | – |
| – | [O]N1C2(CCOCC2)CC(=O)CC12CCOCC2 [Compound 3, 2,6-dispiro-1′,1″-dipyran-piperidone-1-oxyl] | Compound 1>Compound 3>Compound 2 | Compound 3>Compound 2>Compound 1 | very rapidly reacts with ascorbic acid |
